Changes are numbered by the printed parent chain. Where “and” joins values, the source holds several entries; their conditions need not be identical. Equal values may be shown once.
What was measured:
Assay in all cases: in vitro [14C] acetylation assay of purified COX2
Assay type in all cases: biochemical
Conditions in all cases: replicates, listed as C14 N-AS
COX2 S567A = biological target: T1, COX2 S567A (Homo sapiens, UniProt P35354, S567A)
T1 construct: His (N); made in house
T1 sequence (P35354 18-604 S567A): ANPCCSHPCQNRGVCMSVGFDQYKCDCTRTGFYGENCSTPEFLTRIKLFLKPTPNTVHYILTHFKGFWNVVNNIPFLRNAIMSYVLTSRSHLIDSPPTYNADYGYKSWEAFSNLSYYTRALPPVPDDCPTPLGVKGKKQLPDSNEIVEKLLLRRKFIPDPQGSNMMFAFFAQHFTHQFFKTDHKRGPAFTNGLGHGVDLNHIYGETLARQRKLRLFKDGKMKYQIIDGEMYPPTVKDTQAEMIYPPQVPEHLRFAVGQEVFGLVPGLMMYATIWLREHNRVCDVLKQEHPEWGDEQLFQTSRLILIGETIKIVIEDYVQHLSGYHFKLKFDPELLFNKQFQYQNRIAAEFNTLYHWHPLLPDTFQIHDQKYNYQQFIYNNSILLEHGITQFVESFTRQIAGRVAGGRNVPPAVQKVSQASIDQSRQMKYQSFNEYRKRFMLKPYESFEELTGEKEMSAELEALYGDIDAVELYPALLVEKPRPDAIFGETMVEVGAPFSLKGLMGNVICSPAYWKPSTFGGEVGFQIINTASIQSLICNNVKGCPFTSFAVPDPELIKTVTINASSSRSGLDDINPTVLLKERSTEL
Excerpt: (§1) Single point mutations in SphK1 (R56A, R57A, R24A, R185A, D178A, and F192A) and COX2 (S565A, N181A, T564A, and S567A) were generated using the In-Fusion Cloning Kits (Clontech) and ORF cDNA expression plasmids of human SphK1 and COX2 gene (Sino Biological Inc, HG15679-NH and HG12036-NH), according to the manufacturer’s instructions. The forward and reverse primers described in Supplementary Table 4. The SphK1 WT, SphK1 mutants, COX2 WT, and COX2 mutant plasmids were transformed in the One shot TOP 10 competent cell (Invitrogen). The bacteria were grown in Luria-Bertani (LB, Invitrogen) plates supplemented with 50 μg ml^−1 kanamycin (Sigma-Aldrich) at 37 °C. The bacterial cell pellets were resuspended in lysis buffer containing 20 mM sodium phosphate (GE Healthcare), 500 mM NaCl (GE Healthcare), 20 mM imidazole (pH 7.4) (GE Healthcare), 0.2 mg ml^−1 lysozyme (Sigma-Aldrich), 20 μg ml^−1 DNase I (Roche), 1 mM MgCl2 (Sigma-Aldrich), and 1 mM PMSF (Sigma-Aldrich) before being lysed by sonication and clarified by centrifugation at 15,493×g for 10 min. Proteins were purified from the soluble fraction using His-Spin Trap columns (GE Healthcare) and the binding and acetylation assays were performed.
(§2) Acetylation assays were performed according to previously described procedures with minor modifications. […] To confirm the N-AS-mediated COX2 acetylation, 10 μg COX2 (WT or mutants) was used incubated with [^14C] N-AS (2 μCi, ARC UK Ltd, ARC-1024) at 37 °C for 2 h. [^14C] aspirin (2 μCi, ARC UK Ltd, ARC-0473) was conducted as the positive control. The reactions were terminated by placing the reaction tubes in ice for 5 min. To evaluate in vivo neuronal and microglial COX2 acetylation, 10 μCi [^14C] N-AS was orally administrated to 9-months-old WT and APP/PS1 mice. After 1 h, neuron and microglia were isolated and sonicated in culture media. […] Acetylated COX2 proteins bound to the beads were analyzed using a Tri-Carb 3110TR liquid scintillation counter (Perkin-Elmer).

COX2 N181A = biological target: T2, COX2 N181A (Homo sapiens, UniProt P35354, N181A)
T2 construct: His (N); made in house
T2 sequence (P35354 18-604 N181A): T1 sequence (P35354 18-604 S567A) with N164A, A550S
Excerpt: as §1, §2

COX2 S565A = biological target: T3, COX2 S565A (Homo sapiens, UniProt P35354, S565A)
T3 construct: His (N); made in house
T3 sequence (P35354 18-604 S565A): T1 sequence (P35354 18-604 S567A) with S548A, A550S
Excerpt: as §1, §2

## CCCCCCCCCCCCC/C=C/[C@@H](O)[C@H](CO)NC(C)=O [N-AS, N-((2S,3R,E)-1,3-Dihydroxyoctadec-4-en-2-yl)acetamide]
COX2 S567A
  C14 radioactivity of COX2, acetylation assay (Fig 1h): 185354 and 188203 and 187860 and 187573 and 187463 and 187847
COX2 N181A
  C14 radioactivity of COX2, acetylation assay (Fig 1h): 141977 and 143404 and 142984 and 143554 and 143318 and 142968
COX2 S565A
  C14 radioactivity of COX2, acetylation assay (Fig 1h): 117550 and 118051 and 117876 and 111509 and 116124 and 117620

Reference: paper PMC7217877, “N-AS-triggered SPMs are direct regulators of microglia in a model of Alzheimer’s disease” (Nature Communications, 2020)
